US8906852B2 (MethylGene Inc., priority 2010, dated 2014)
pIC50: −log10 of the molar value.

These compounds were tested against T1, VEGFR/KDR (Homo sapiens, UniProt P35968) (assay: VEGFR/KDR kinase inhibition, DELFIA assay). Conditions: ATP 0.6 uM (2x Km), enzyme 5 nM.
T1 construct: made in house; host or cells: Sf9 cells (Spodoptera frugiperda), baculovirus
Type: biochemical
Outline: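 DELFIA time-resolved fluorescence readout using Europium-tagged anti-phosphotyrosine antibody after EDTA stop. Kinase reaction on plate-bound poly(Glu4,Tyr) ran 10-30 min at 30° C with 5 nM enzyme and 0.6 uM ATP (2× Km), following 4 min on-ice pre-incubation with compound; IC50 over a concentration range.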

T1 sequence (P35968 806-1356): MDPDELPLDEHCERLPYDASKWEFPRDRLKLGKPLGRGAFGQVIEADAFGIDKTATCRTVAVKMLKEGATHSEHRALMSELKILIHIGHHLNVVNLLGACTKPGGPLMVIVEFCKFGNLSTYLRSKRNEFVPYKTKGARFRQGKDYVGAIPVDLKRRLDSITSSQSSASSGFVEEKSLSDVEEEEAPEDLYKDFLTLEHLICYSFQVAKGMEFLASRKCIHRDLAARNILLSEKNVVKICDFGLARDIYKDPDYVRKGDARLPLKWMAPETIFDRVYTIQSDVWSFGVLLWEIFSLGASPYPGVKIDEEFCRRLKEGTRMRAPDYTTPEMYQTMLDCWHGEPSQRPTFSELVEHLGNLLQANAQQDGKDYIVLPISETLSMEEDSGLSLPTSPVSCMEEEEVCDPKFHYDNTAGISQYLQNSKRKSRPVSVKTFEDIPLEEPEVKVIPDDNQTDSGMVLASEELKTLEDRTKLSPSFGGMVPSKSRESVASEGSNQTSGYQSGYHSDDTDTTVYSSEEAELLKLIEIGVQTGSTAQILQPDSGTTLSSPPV

Q: How did the pIC50 turn out when `O=C(Nc1ccc(Oc2ccnc3cc(C(=O)N4CC[C@@H](O)C4)sc23)c(F)c1)NC1CC1` [Compound 460, (R)-1-cyclopropyl-3-(3-fluoro-4-(2-(3-hydroxypyrrolidine-1-carbonyl)thieno[3,2-b]pyridin-7-yloxy)phenyl)urea] was run?
A: Its pIC50 is > 7.30.

Q: `O=C(Nc1ccc(Oc2ccnc3cc(C(=O)N4CC[C@H](O)C4)sc23)c(F)c1)NC1CC1` [Compound 461, (S)-1-cyclopropyl-3-(3-fluoro-4-(2-(3-hydroxypyrrolidine-1-carbonyl)thieno[3,2-b]pyridin-7-yloxy)phenyl)urea] was tested. Which pIC50 did it give?
A: The pIC50 was > 7.30.

Q: `O=C(Nc1ccc(Oc2ccnc3cc(C(=O)N4CC(O)C4)sc23)c(F)c1)NC1CC1` [Compound 462] was tested. Which pIC50 did it give?
A: The pIC50 was > 7.30.

Q: `O=C(Nc1ccc(Oc2ccnc3cc(C(=O)N4CCC[C@@H](O)C4)sc23)c(F)c1)NC1CC1` [Compound 463, (R)-1-cyclopropyl-3-(3-fluoro-4-(2-(3-hydroxypiperidine-1-carbonyl)thieno-[3,2-b]pyridine-7-yloxy)phenyl)urea] was tested. Which pIC50 did it give?
A: The pIC50 was 6.60 to 7.00.

Q: `O=C(Nc1ccc(Oc2ccnc3cc(C(=O)N4CCC(C(=O)O)CC4)sc23)c(F)c1)NC1CC1` [Compound 465, 1-(7-(4-(3-cyclopropylureido)-2-fluorophenoxy)thieno[3,2-b]pyridine-2-carbonyl)piperidine-4-carboxylic acid] was tested. Which pIC50 did it give?
A: The pIC50 was 7.00 to 7.30.

Q: With `O=C(Nc1ccc(Oc2ccnc3cc(C(=O)N4CCCC(C(=O)O)C4)sc23)c(F)c1)NC1CC1` (stereo not drawn) [Compound 466, 1-(7-(4-(3-cyclopropylureido)-2-fluorophenoxy)thieno[3,2-b]pyridine-2-carbonyl)piperidine-3-carboxylic acid] as the compound, how does the pIC50 read?
A: The pIC50 was > 7.30.

Q: With `CC(=O)O[C@@H]1CCN(C(=O)c2cc3nccc(Oc4ccc(NC(=O)NC5CC5)cc4F)c3s2)C1` [Compound 467, (R)-1-(7-(4-(3-cyclopropylureido)-2-fluorophenoxy)thieno[3,2-b]pyridine-2-carbonyl)pyrrolidin-3-yl acetate] as the compound, how does the pIC50 read?
A: The pIC50 was > 7.30.

Q: How did the pIC50 turn out when `CC(=O)O[C@H]1CCN(C(=O)c2cc3nccc(Oc4ccc(NC(=O)NC5CC5)cc4F)c3s2)C1` [Compound 468, (S)-1-(7-(4-(3-cyclopropylureido)-2-fluorophenoxy)thieno[3,2-b]pyridine-2-carbonyl)pyrrolidin-3-yl acetate] was run?
A: Its pIC50 is > 7.30.

Q: How did the pIC50 turn out when `CC(=O)OC1CN(C(=O)c2cc3nccc(Oc4ccc(NC(=O)NC5CC5)cc4F)c3s2)C1` [Compound 469, 1-(7-(4-(3-cyclopropylureido)-2-fluorophenoxy)thieno[3,2-b]pyridine-2-carbonyl)azetidin-3-yl acetate] was run?
A: The pIC50 was > 7.30.

Q: `CN(C)CCNC(=O)C1CCN(C(=O)c2cc3nccc(Oc4ccc(NC(=O)NC5CC5)cc4F)c3s2)CC1` [Compound 471, 1-(7-(4-(3-cyclopropylureido)-2-fluorophenoxy)thieno[3,2-b]pyridine-2-carbonyl)-N-(2-(dimethylamino)ethyl)piperidine-4-carboxamide] was tested. Which pIC50 did it give?
A: Its pIC50 is 7.00 to 7.30.

Q: How did the pIC50 turn out when `CN1CCN(C(=O)C2CCN(C(=O)c3cc4nccc(Oc5ccc(NC(=O)NC6CC6)cc5F)c4s3)CC2)CC1` [Compound 472, 1-cyclopropyl-3-(3-fluoro-4-(2-(4-(4-methylpiperazine-l-carbonyl)piperidine-1-carbonyl)thieno[3,2-b]pyridin-7-yloxy)phenyl)urea] was run?
A: The pIC50 was 7.00 to 7.30.

Q: How did the pIC50 turn out when `CN1CCN(C(=O)C2CCCN(C(=O)c3cc4nccc(Oc5ccc(NC(=O)NC6CC6)cc5F)c4s3)C2)CC1` (stereo not drawn) [Compound 473, 1-cyclopropyl-3-(3-fluoro-4-(2-(3-(4-methylpiperazine-1-carbonyl)piperidine-1-carbonyl)thieno[3,2-b]pyridin-7-yloxy)phenyl)urea] was run?
A: The pIC50 was > 7.30.

Q: How did the pIC50 turn out when `CCOC(=O)C1CCCN(Cc2ccc(-c3cc4nccc(Oc5ccc(NC(=O)NC6CC6)cc5F)c4s3)nc2)C1` (stereo not drawn) [Compound 475, ethyl 1-((6-(7-(4-(3-cyclopropylureido)-2-fluorophenoxy)thieno[3,2-b]pyridin-2-yl)pyridino-yl)methyl)piperidine-3-carboxylate] was run?
A: Its pIC50 is > 7.30.

Q: How did the pIC50 turn out when `COC(=O)[C@@H]1CCCN1Cc1ccc(-c2cc3nccc(Oc4ccc(NC(=O)NC5CC5)cc4F)c3s2)nc1` [Compound 476] was run?
A: Its pIC50 is > 7.30.

Q: How did the pIC50 turn out when `O=C(Nc1ccc(Oc2ccnc3cc(-c4ccc(CN5CC(C(=O)O)C5)cn4)sc23)c(F)c1)NC1CC1` [Compound 477, 1-((6-(7-(4-(3-cyclopropylureido)-2-fluorophenoxy)thieno[3,2-b]pyridin-2-yl)pyridin-3-yl)methyl)azetidine-3-carboxylic acid] was run?
A: The pIC50 was > 7.30.

Q: How did the pIC50 turn out when `COC(=O)C1CCN(Cc2ccc(-c3cc4nccc(Oc5ccc(NC(=O)NC6CC6)cc5F)c4s3)nc2)C1` (stereo not drawn) [Compound 478, methyl 1-((6-(7-(4-(3-cyclopropylureido)-2-fluorophenoxy)thieno[3,2-b]pyridin-2-yl)pyridin-3-yl)methyl)pyrrolidine-3-carboxylate] was run?
A: Its pIC50 is > 7.30.

Q: With `CC(C)(C)OC(=O)N[C@H]1CCN(Cc2ccc(-c3cc4nccc(Oc5ccc(NC(=O)NC6CC6)cc5F)c4s3)nc2)C1` [Compound 480, (S)-tert-butyl 1-((6-(7-(4-(3-cyclopropylureido)-2-fluorophenoxy)thieno[3,2-b]pyridin-2-yl)pyridin-3-yl)methyl)pyrrolidin-3-ylcarbamate] as the compound, how does the pIC50 read?
A: Its pIC50 is > 7.30.

Q: How did the pIC50 turn out when `CC(C)(C)OC(=O)N[C@@H]1CCN(Cc2ccc(-c3cc4nccc(Oc5ccc(NC(=O)NC6CC6)cc5F)c4s3)nc2)C1` [Compound 481, (R)-tert-butyl 1-((6-(7-(4-(3-cyclopropylureido)-2-fluorophenoxy)thieno[3,2-b]pyridin-2-yl)pyridin-3-yl)methyl)pyrrolidin-3-ylcarbamate] was run?
A: The pIC50 was > 7.30.

Q: How did the pIC50 turn out when `CN1CCN(C(=O)C2CCN(Cc3ccc(-c4cc5nccc(Oc6ccc(NC(=O)NC7CC7)cc6F)c5s4)nc3)CC2)CC1` [Compound 482, 1-cyclopropyl-3-(3-fluoro-4-(2-(5-((4-(4-methylpiperazine-1-carbonyl)piperidin-1-yl)methyl)pyridin-2-yl)thieno[3,2-b]pyridin-7-yloxy)phenyl)urea] was run?
A: The pIC50 was > 7.30.

Q: How did the pIC50 turn out when `O=C(Nc1ccc(Oc2ccnc3cc(-c4ccc(CN5CCC(C(=O)NCCO)CC5)cn4)sc23)c(F)c1)NC1CC1` [Compound 483, 1-((6-(7-(4-(3-cyclopropylureido)-2-fluorophenoxy)thieno[3,2-b]pyridin-2-yl)pyridin-3-yl)methyl)-N-(2-hydroxyethyl)piperidine-4-carboxamide] was run?
A: The pIC50 was > 7.30.

Q: With `CN(CCO)C(=O)C1CCN(Cc2ccc(-c3cc4nccc(Oc5ccc(NC(=O)NC6CC6)cc5F)c4s3)nc2)CC1` [Compound 484] as the compound, how does the pIC50 read?
A: The pIC50 was > 7.30.

Q: `O=C(Nc1ccc(Oc2ccnc3cc(-c4ccc(CN5CCC[C@H]5C(=O)NCCO)cn4)sc23)c(F)c1)NC1CC1` [Compound 485, (S)-1-((6-(7-(4-(3-cyclopropylureido)-2-fluorophenoxy)thieno[3,2-b]pyridin-2-yl)pyridin-3-yl)methyl)-N-(2-hydroxyethyl)pyrrolidine-2-carboxamide] was tested. Which pIC50 did it give?
A: The pIC50 was > 7.30.

Q: How did the pIC50 turn out when `CN(CCO)C(=O)[C@@H]1CCCN1Cc1ccc(-c2cc3nccc(Oc4ccc(NC(=O)NC5CC5)cc4F)c3s2)nc1` [Compound 486, (S)-1-((6-(7-(4-(3-cyclopropylureido)-2-fluorophenoxy)thieno[3,2-b]pyridin-2-yl)pyridin-3-yl)methyl)-N-(2-hydroxyethyl)-N-methylpyrrolidine-2-carboxamide] was run?
A: Its pIC50 is > 7.30.

Q: With `CN(C)CCNC(=O)[C@@H]1CCCN1Cc1ccc(-c2cc3nccc(Oc4ccc(NC(=O)NC5CC5)cc4F)c3s2)nc1` [Compound 487, (S)-1-((6-(7-(4-(3-cyclopropylureido)-2-fluorophenoxy)thieno[3,2-6]pyridin-2-yl)pyridin-3-yl)methyl)-N-(2-(dimethylamino)ethyl) pyrrolidine-2-carboxamide] as the compound, how does the pIC50 read?
A: Its pIC50 is > 7.30.

Q: With `CN1CCN(C(=O)[C@@H]2CCCN2Cc2ccc(-c3cc4nccc(Oc5ccc(NC(=O)NC6CC6)cc5F)c4s3)nc2)CC1` [Compound 488, (S)-1-cyclopropyl-3-(3-fluoro-4-(2-(5-((2-(4-methylpiperazine-1-carbonyl)pyrrolidin-1-yl)methyl)pyridin-2-yl)thieno[3,2-b]pyridin-7-yloxy)phenyl)urea] as the compound, how does the pIC50 read?
A: Its pIC50 is > 7.30.

Q: With `CN1CCN(C(=O)C2CN(Cc3ccc(-c4cc5nccc(Oc6ccc(NC(=O)NC7CC7)cc6F)c5s4)nc3)C2)CC1` [Compound 489, 1-cyclopropyl-3-(3-fluoro-4-(2-(5-((3-(4-methylpiperazine-1-carbonyl)azetidin-1-yl)methyl)pyridin-2-yl)thieno[3,2-b]pyridin-7-yloxy)phenyl)urea] as the compound, how does the pIC50 read?
A: The pIC50 was > 7.30.

Q: With `CN(C)CCNC(=O)C1CN(Cc2ccc(-c3cc4nccc(Oc5ccc(NC(=O)NC6CC6)cc5F)c4s3)nc2)C1` [Compound 490, 1-((6-(7-(4-(3-cyclopropylureido)-2-fluorophenoxy)thieno[3,2-b]pyridin-2-yl)pyridin-3-yl)methyl)-N-(2-(dimethylamino)ethyl)azetidine-3-carboxamide] as the compound, how does the pIC50 read?
A: The pIC50 was > 7.30.

Q: `CN(C)CCNC(=O)C1CCCN(Cc2ccc(-c3cc4nccc(Oc5ccc(NC(=O)NC6CC6)cc5F)c4s3)nc2)C1` (stereo not drawn) [Compound 491, 1-((6-(7-(4-(3-cyclopropylureido)-2-fluorophenoxy)thieno[3,2-b]pyridin-2-yl)pyridin-3-yl)methyl)-N-(2-(dimethylamino)ethyl)piperidine-3-carboxamide] was tested. Which pIC50 did it give?
A: Its pIC50 is > 7.30.

Q: `O=C(Nc1ccc(Oc2ccnc3cc(-c4ccc(CN5CCCC(C(=O)NCCO)C5)cn4)sc23)c(F)c1)NC1CC1` (stereo not drawn) [Compound 492, 1-((6-(7-(4-(3-cyclopropylureido)-2-fluorophenoxy)thieno[3,2-b]pyridin-2-yl)pyridin-3-yl)methyl)-N-(2-hydroxyethyl)piperidine-3-carboxamide] was tested. Which pIC50 did it give?
A: Its pIC50 is > 7.30.

Q: `CN1CCN(C(=O)C2CCCN(Cc3ccc(-c4cc5nccc(Oc6ccc(NC(=O)NC7CC7)cc6F)c5s4)nc3)C2)CC1` (stereo not drawn) [Compound 493, 1-cyclopropyl-3-(3-fluoro-4-(2-(5-((3-(4-methylpiperazine-1-carbonyl)piperidin-1-yl)methyl)pyridin-2-yl)thieno[3,2-b]pyridin-7-yloxy)phenyl)urea] was tested. Which pIC50 did it give?
A: Its pIC50 is > 7.30.
